Values after ≈ are worked out from the molar mass of the structure shown.
How the values were obtained:
L1210 = assay: Cytotoxicity against mouse L1210 cells; assay type: functional, cell-based
KB = assay: Cytotoxicity against human KB cells; assay type: functional, cell-based

C=C1CCC[C@]2(C)CC[C@@H](C(C)C)[C@H](NC(=O)N[C@]3(C)CC[C@@H]4[C@H]([C@@H]5[C@H](C)CC[C@H]53)C4(C)C)[C@@H]12 [HALICHONADIN E]
IC50 (L1210): 3 µg/mL (≈ 6.4 µM) | IC50 (KB): 2.6 µg/mL (≈ 5.55 µM)
